# Measurements as given in patent publication US12493040B2, “Cancer detection method using sense of smell of nematode” (HIROTSU BIO SCIENCE INC., priority 2013, dated 2025).
# System: RNAi-treated eri-1 (mg366) nematodes
# Test: RNAi screening of olfactory receptor genes: chemotaxis assay of RNAi-treated nematodes to odorants
# Assay type: in vivo, Caenorhabditis elegans
# Details: low concentration of attractant
# Summary of the method: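 eri-1 (mg366) worms knocked down by feeding RNAi (Ahringer library) on IPTG/ampicillin NGM plates with E. coli for 4 days, then tested for chemotaxis, 30–50 worms per assay. Odorants at 1 μl of 10^−3 or 10^−4 dilution, or 1 and 5 μl undiluted. Hits scored by z score, thresholds ±1.96 (P<0.05) or ±0.96.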
smiles,measurement,setting,value
CCC(C)=O [butanone],chemotaxis index,Control nematodes,0.65 ± 0.021
same,chemotaxis index,srh-10 RNAi-treated nematodes,−0.65
same,chemotaxis index,srh-11 RNAi-treated nematodes,−0.15
same,chemotaxis index,srh-15 RNAi-treated nematodes,0.55
same,chemotaxis index,srh-16 RNAi-treated nematodes,0.74
same,chemotaxis index,srh-18 RNAi-treated nematodes,0.52
same,chemotaxis index,srh-19 RNAi-treated nematodes,0.89
same,chemotaxis index,srh-22 RNAi-treated nematodes,0.19
same,chemotaxis index,srh-23 RNAi-treated nematodes,0.67
same,chemotaxis index,srh-24 RNAi-treated nematodes,0.59
same,chemotaxis index,srh-25 RNAi-treated nematodes,0.72
same,chemotaxis index,srh-27 RNAi-treated nematodes,0.63
same,chemotaxis index,srh-28 RNAi-treated nematodes,0.55
same,chemotaxis index,srh-36 RNAi-treated nematodes,0.37
same,chemotaxis index,srh-37 RNAi-treated nematodes,0.37
same,chemotaxis index,srh-39 RNAi-treated nematodes,0.48
same,chemotaxis index,srh-40 RNAi-treated nematodes,0.94
same,chemotaxis index,srh-41 RNAi-treated nematodes,0.64
same,chemotaxis index,srh-44 RNAi-treated nematodes,0.82
same,chemotaxis index,srh-45 RNAi-treated nematodes,0.73
same,chemotaxis index,srh-46 RNAi-treated nematodes,0.82
same,chemotaxis index,srh-48 RNAi-treated nematodes,0.55
same,chemotaxis index,srh-49 RNAi-treated nematodes,0.80
same,chemotaxis index,srh-50 RNAi-treated nematodes,0.87
same,chemotaxis index,srh-51 RNAi-treated nematodes,0.70
same,chemotaxis index,srh-52 RNAi-treated nematodes,0.69
same,chemotaxis index,srh-55 RNAi-treated nematodes,0.43
same,chemotaxis index,srh-59 RNAi-treated nematodes,0.51
same,chemotaxis index,srh-60 RNAi-treated nematodes,0.79
same,chemotaxis index,srh-61 RNAi-treated nematodes,0.74
same,chemotaxis index,srh-67 RNAi-treated nematodes,0.85
same,chemotaxis index,srh-68 RNAi-treated nematodes,0.67
same,chemotaxis index,srh-69 RNAi-treated nematodes,0.66
same,chemotaxis index,srh-70 RNAi-treated nematodes,0.43
same,chemotaxis index,srh-71 RNAi-treated nematodes,0.76
same,chemotaxis index,srh-72 RNAi-treated nematodes,0.58
same,chemotaxis index,srh-74 RNAi-treated nematodes,0.76
same,chemotaxis index,srh-75 RNAi-treated nematodes,0.76
same,chemotaxis index,srh-77 RNAi-treated nematodes,0.70
same,chemotaxis index,srh-79 RNAi-treated nematodes,0.58
same,chemotaxis index,srh-80 RNAi-treated nematodes,0.64
same,chemotaxis index,srh-82 RNAi-treated nematodes,0.79
same,chemotaxis index,srh-83 RNAi-treated nematodes,0.71
same,chemotaxis index,srh-97 RNAi-treated nematodes,0.80
same,chemotaxis index,srh-99 RNAi-treated nematodes,0.75
same,chemotaxis index,srh-100 RNAi-treated nematodes,0.80
same,chemotaxis index,srh-104 RNAi-treated nematodes,0.48
same,chemotaxis index,srh-105 RNAi-treated nematodes,0.76
same,chemotaxis index,srh-109 RNAi-treated nematodes,0.89
same,chemotaxis index,srh-111 RNAi-treated nematodes,0.59
same,chemotaxis index,srh-113 RNAi-treated nematodes,0.30
same,chemotaxis index,srh-115 RNAi-treated nematodes,0.70
same,chemotaxis index,srh-116 RNAi-treated nematodes,0.56
same,chemotaxis index,srh-118 RNAi-treated nematodes,0.60
same,chemotaxis index,srh-119 RNAi-treated nematodes,0.50
same,chemotaxis index,srh-120 RNAi-treated nematodes,0.78
same,chemotaxis index,srh-122 RNAi-treated nematodes,0.58
same,chemotaxis index,srh-123 RNAi-treated nematodes,0.84
same,chemotaxis index,srh-125 RNAi-treated nematodes,0.76
same,chemotaxis index,srh-128 RNAi-treated nematodes,0.69
same,chemotaxis index,srh-129 RNAi-treated nematodes,0.63
same,chemotaxis index,srh-130 RNAi-treated nematodes,0.82
same,chemotaxis index,srh-214 RNAi-treated nematodes,0.85
same,chemotaxis index,srh-216 RNAi-treated nematodes,0.86
same,chemotaxis index,srh-217 RNAi-treated nematodes,0.69
same,chemotaxis index,srh-220 RNAi-treated nematodes,0.81
same,chemotaxis index,srh-222 RNAi-treated nematodes,0.62
same,chemotaxis index,srh-223 RNAi-treated nematodes,0.88
same,chemotaxis index,srh-227 RNAi-treated nematodes,0.37
same,chemotaxis index,srh-229 RNAi-treated nematodes,0.60
same,chemotaxis index,srh-233 RNAi-treated nematodes,0.50
same,chemotaxis index,srh-235 RNAi-treated nematodes,0.76
same,chemotaxis index,srh-236 RNAi-treated nematodes,0.71
same,chemotaxis index,srh-239 RNAi-treated nematodes,0.59
same,chemotaxis index,srh-241 RNAi-treated nematodes,0.63
same,chemotaxis index,srh-243 RNAi-treated nematodes,0.72
same,chemotaxis index,srh-244 RNAi-treated nematodes,0.73
same,chemotaxis index,srh-247 RNAi-treated nematodes,0.85
same,chemotaxis index,srh-250 RNAi-treated nematodes,0.79
same,chemotaxis index,srh-251 RNAi-treated nematodes,0.92
same,chemotaxis index,srh-252 RNAi-treated nematodes,0.86
same,chemotaxis index,srh-258 RNAi-treated nematodes,0.56
same,chemotaxis index,srh-261 RNAi-treated nematodes,0.60
same,chemotaxis index,srh-264 RNAi-treated nematodes,0.56
same,chemotaxis index,srh-266 RNAi-treated nematodes,−0.31
same,chemotaxis index,srh-274 RNAi-treated nematodes,−0.59
same,chemotaxis index,srh-275 RNAi-treated nematodes,−0.29
same,chemotaxis index,srh-276 RNAi-treated nematodes,0.30
same,chemotaxis index,srh-277 RNAi-treated nematodes,−0.09
same,chemotaxis index,srh-279 RNAi-treated nematodes,0.89
same,chemotaxis index,srh-281 RNAi-treated nematodes,0.49
same,chemotaxis index,srh-282 RNAi-treated nematodes,0.80
same,chemotaxis index,srh-283 RNAi-treated nematodes,0.65
same,chemotaxis index,srh-284 RNAi-treated nematodes,0.73
same,chemotaxis index,srh-291 RNAi-treated nematodes,0.86
same,chemotaxis index,srh-292 RNAi-treated nematodes,0.80
same,chemotaxis index,srh-293 RNAi-treated nematodes,0.75
same,chemotaxis index,srh-297 RNAi-treated nematodes,0.84
same,chemotaxis index,srh-298 RNAi-treated nematodes,0.65
same,chemotaxis index,srh-308 RNAi-treated nematodes,0.04
